Drawing on patent publication US7683176B2, “Triazolyl pyridyl benzenesulfonamides” (ChemoCentryx, Inc., priority 2006, dated 2010), this text covers IC50 for 32 compounds.

Molecules are shown by their SMILES.

The target of the assay is T1, CCR9 (Homo sapiens, UniProt P51686).
T1 construct: chemokine expressing cells (such as THP-1 cells for CCR2 assay or MOLT-4 cells for CCR9 assay); host or cells: MOLT-4
T1 sequence (P51686 1-369): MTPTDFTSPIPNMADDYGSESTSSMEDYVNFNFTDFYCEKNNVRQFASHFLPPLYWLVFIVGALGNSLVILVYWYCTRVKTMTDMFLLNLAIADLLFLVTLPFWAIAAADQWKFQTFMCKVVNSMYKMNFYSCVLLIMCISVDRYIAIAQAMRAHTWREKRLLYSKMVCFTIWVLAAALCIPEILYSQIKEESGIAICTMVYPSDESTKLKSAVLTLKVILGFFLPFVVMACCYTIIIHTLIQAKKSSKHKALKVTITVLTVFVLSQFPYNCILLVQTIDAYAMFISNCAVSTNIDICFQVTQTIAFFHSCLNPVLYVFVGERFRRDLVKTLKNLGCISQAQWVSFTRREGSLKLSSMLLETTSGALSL
Briefly: CCR9 activity in one of the chemotaxis, binding or calcium mobilization assays. Conditions: binding or calcium mobilization assays (MOLT-4 cells, TECK). It counts as cell-based. The method, then: THP-1 cells and MOLT-4 cells were obtained from the American Type Culture Collection (Manassas, Va.) and cultured in RPMI tissue culture medium supplemented with 10% fetal calf serum (FCS) in a humidified 5% CO2 incubator at 37° C. Recombinant human chemokine proteins MCP-1 and TECK were obtained from R&D Systems (Minneapolis, Minn.). ^125I-labeled MCP-1 protein was obtained from Amersham (Piscataway, N.J.). ChemoTX® chemotaxis microchambers were purchased from Neuro Probe (Gaithersburg, Md.). CyQUANT® cell proliferation kits were purchased from Molecular Probes (Eugene, Oreg.). Calcium indicator dye Fluo-4 AM was purchased from Molecular Devices (Mountain View, Calif.).
Conventional migration assay was used to determine the efficacy of potential receptor antagonists in blocking migration mediated through chemokines (such as CCR2 or CCR9). This assay was routinely performed using the ChemoTX® microchamber system with a 5-μm pore-sized polycarbonate membrane. To begin such an assay, chemokine expressing cells (such as THP-1 cells for CCR2 assay or MOLT-4 cells for CCR9 assay) were harvested by centrifugation of cell suspension at 1000 RPM on a GS-6R Beckman centrifuge. The cell pellet was resuspended in chemotaxis buffer (HBSS with 0.1% BSA) at 10×10^6 cells/mL for CCR2 assay (5×10^6 cells/mL for CCR9 assay). Test compounds at desired concentrations were prepared from 10 mM stock solutions by serial dilutions in chemotaxis buffer. An equal volume of cells and compounds were mixed and incubated at room temperature for 15 minutes. Afterwards, 20 μL of the mixture was transferred onto the porous membrane of a migration microchamber, with 29 μL of chemokine ligand (0.1 nM chemokine MCP-1 protein for CCR2 assay or […] chemokine TECK protein for CCR9 assay) placed at the lower chamber. Following an incubation at 37° C. (90-minute for CCR2; 150-minute for CCR9), during which cells migrated […] the chemokine gradient, the assay was terminated by removing the cell drops from atop the filter. To quantify cells migrated across the membrane, 5 μL of 7× CyQUANT® solution was added to each well in the lower chamber, and the fluorescence signal measured on a Spectrafluor Plus fluorescence plate reader (TECAN, Durham, N.C.). The degree of inhibition was determined by comparing migration signals between compound-treated and untreated cells. IC50 calculation was further performed by non-linear squares regression analysis using Graphpad Prism (Graphpad Software, San Diego, Calif.).
Calcium flux assay measures an increase in intracellular calcium following ligand-induced receptor activation. In the screen of chemokine antagonists, it was used as a secondary assay carried out on a FLIPR® machine (Molecular Devices, Mountain View, Calif.). To begin an assay, chemokine expressing cells (such as THP-1 cells for CCR2 assay or MOLT-4 cells for CCR9 assay) were harvested by centrifugation of cell suspension, and resuspended to 1.5×10^6 cells/mL in HBSS (with 1% fetal calf serum). Cells were then labeled with a calcium indicator dye Fluo-4 AM for 45 minutes at 37° C. with gentle shaking. Following incubation, cells were pelletted, washed once with HBSS and resuspended in the same buffer at a density of 1.6×10^6 cells/mL. One hundred microliters of labeled cells were mixed with 10 μL of test compound at the appropriate concentrations on an assay plate. Chemokine protein (MCP-1 at a final concentration of 0.1 nM for CCR2 assay or TECK at a final concentration of 25 nM for CCR9 assay) to activate the receptor. The degree of inhibition was determined by comparing calcium signals between compound-treated and untreated cells. IC50 calculations were further performed by non-linear squares regression analysis using Graphpad Prism (Graphpad Software, San Diego, Calif.).
Background: Calcium flux is commonly read through the fluorescence of an indicator in the cells.

With `Cc1nnc(-c2ncc(Cl)cc2NS(=O)(=O)c2ccc(C(C)(C)C)cc2)n1C(C)C`, the IC50 (in general, the concentration at which inhibition is half-maximal) was under 1000 nM.
With `CC(C)(C)c1ccc(S(=O)(=O)Nc2cc(Cl)cnc2-c2nnc3n2CCNC3)cc1` the figure was under 1000 nM; with `COCc1nnc(-c2ncc(Cl)cc2NS(=O)(=O)c2ccc(C(C)(C)C)cc2)n1C`, under 1000 nM; with `Cc1cnc(-c2nncn2C2CCNC2)c(NS(=O)(=O)c2ccc(C(C)(C)C)cc2)c1` (centres unmarked), under 1000 nM.
With `CC(C)(C)c1ccc(S(=O)(=O)Nc2cc(Cl)cnc2-c2nnc3n2CCOC3)cc1` the figure was under 1000 nM.
For the compound `CC(C)(C)c1ccc(S(=O)(=O)Nc2cc(Cl)cnc2-c2nncn2-c2ccccc2F)cc1`, the IC50 was under 1000 nM.
In the case of `CC(C)c1nnc(-c2ncc(Cl)cc2NS(=O)(=O)c2ccc(C(C)(C)C)cc2)n1C`, the IC50 is under 1000 nM.
With `CNC(=O)c1nnc(-c2ncc(Cl)cc2NS(=O)(=O)c2ccc(C(C)(C)C)cc2)n1C(C)C` the figure was under 1000 nM.
With `CCOC(=O)c1nnc(-c2ncc(Cl)cc2NS(=O)(=O)c2ccc(C(C)(C)C)cc2)n1C(C)C` the figure was under 1000 nM.
Take `CC(C)(C)c1ccc(S(=O)(=O)Nc2cc(Cl)cnc2-c2nncn2[C@H]2CCNC2)cc1`: the half-inhibitory concentration (IC50) is under 1000 nM.
With `Cc1cnc(-c2nncn2C2CCN(C)C2)c(NS(=O)(=O)c2ccc(C(C)(C)C)cc2)c1` (centres unmarked) the figure was under 1000 nM.
With `CC(C)n1cnnc1-c1ncc(Cl)cc1NS(=O)(=O)c1ccc(C(C)(C)C)cc1` the figure was under 1000 nM.
With `Cn1c(-c2ccncc2)nnc1-c1ncc(Cl)cc1NS(=O)(=O)c1ccc(C(C)(C)C)cc1` the figure was under 1000 nM; with `CC(=O)Nc1nnc(-c2ncc(Cl)cc2NS(=O)(=O)c2ccc(C(C)(C)C)cc2)n1C(C)C`, under 1000 nM.
As to `Cc1cnc(-c2nncn2C2CCN(C(=O)OC(C)(C)C)C2)c(NS(=O)(=O)c2ccc(C(C)(C)C)cc2)c1` (centres unmarked), the IC50 was under 1000 nM.
With `Cc1nnc(-c2ncc(Cl)cc2NS(=O)(=O)c2ccc(C(C)(C)C)cc2)n1C1CC1` the figure was under 1000 nM; with `COCc1nnc(-c2ncc(Cl)cc2NS(=O)(=O)c2ccc(C(C)(C)C)cc2)n1C(C)C`, under 1000 nM.
With `Cn1c(-c2ncc(Cl)cc2NS(=O)(=O)c2ccc(C(C)(C)C)cc2)nnc1C1CCCN1` (centres unmarked) the figure was under 1000 nM; with `CC(C)n1c(N)nnc1-c1ncc(Cl)cc1NS(=O)(=O)c1ccc(C(C)(C)C)cc1`, under 1000 nM; with `CC(C)(C)c1ccc(S(=O)(=O)Nc2cc(Cl)cnc2-c2nncn2[C@H]2CCCNC2)cc1`, under 1000 nM.
With `COCc1nnc(-c2ncc(Cl)cc2NS(=O)(=O)c2ccc(C(C)(C)C)cc2)n1C1CCOCC1` the figure was under 1000 nM; with `Cn1c(-c2cccnc2)nnc1-c1ncc(Cl)cc1NS(=O)(=O)c1ccc(C(C)(C)C)cc1`, under 1000 nM; with `CCn1c(COC)nnc1-c1ncc(Cl)cc1NS(=O)(=O)c1ccc(C(C)(C)C)cc1`, under 1000 nM.
Turning to `Cc1nnc(-c2ncc(Cl)cc2NS(=O)(=O)c2ccc(C(C)(C)C)cc2)n1C`, the concentration for half-maximal inhibition (IC50) was under 1000 nM.
As for `CC(C)n1c(C(=O)N(C)C)nnc1-c1ncc(Cl)cc1NS(=O)(=O)c1ccc(C(C)(C)C)cc1`, the IC50 was under 1000 nM.
With `CCn1cnnc1-c1ncc(Cl)cc1NS(=O)(=O)c1ccc(C(C)(C)C)cc1` the figure was under 1000 nM.
On to `Cn1c(-c2ncc(Cl)cc2NS(=O)(=O)c2ccc(C(C)(C)C)cc2)nnc1C1CCNCC1`, for which the half-maximal inhibitory concentration (IC50) is under 1000 nM.
As to `CC(C)n1c(-c2ncc(Cl)cc2NS(=O)(=O)c2ccc(C(C)(C)C)cc2)nnc1C(C)(C)O`, the IC50 was under 1000 nM.
With `CC(C)(C)c1ccc(S(=O)(=O)Nc2cc(Cl)cnc2-c2nncn2-c2ccccc2)cc1`, the half-maximal inhibitory concentration (IC50) was under 1000 nM.
As for `Cn1c(-c2ccno2)nnc1-c1ncc(Cl)cc1NS(=O)(=O)c1ccc(C(C)(C)C)cc1`, the IC50 was under 1000 nM.
With `CCn1c(C)nnc1-c1ncc(Cl)cc1NS(=O)(=O)c1ccc(C(C)(C)C)cc1` the figure was under 1000 nM; with `Cn1cnnc1-c1ncc(Cl)cc1NS(=O)(=O)c1ccc(C(C)(C)C)cc1`, under 1000 nM.
